According to ChEMBL document CHEMBL5137125, “Echiumin E, an Aryl Dihydronaphthalene Lignan from the Australian Invasive Plant Paterson's Curse (Echium plantagineum)” (J Nat Prod, 2022):

Tests used:
PC-3 = assay: Cytotoxicity against human PC-3 cells assessed as inhibition of cell growth and measured after 72 hrs resazurin reduction assay; assay type: functional, cell-based; settings: PC-3, 72 h
[1] = Cytotoxicity against human WPMY-1 cells assessed as inhibition of cell growth and measured after 72 hrs resazurin reduction assay; assay type: toxicity, cell-based; settings: for IC50 at 72 h: WPMY-1 cells
SH-SY5Y [2] = assay: Cytotoxicity against human SH-SY5Y cells assessed as inhibition of cell growth and measured after 72 hrs resazurin reduction assay; assay type: functional, cell-based
HeLa = assay: Cytotoxicity against human HeLa cells assessed as inhibition of cell growth and measured after 72 hrs resazurin reduction assay; assay type: functional, cell-based
SH-SY5Y [3] = assay: Cytotoxicity against human SH-SY5Y cells assessed as inhibition of cell growth and measured upto 72 hrs by clonogenic assay; assay type: functional, cell-based

| SMILES | IC50 (PC-3) | IC50 at 72 h [1] | IC50 (SH-SY5Y [2]) | Activity ([1]; wpmy-1, 72 h, time 72 hrs) | IC50 (HeLa) | IC50 (SH-SY5Y [3]) |
| --- | --- | --- | --- | --- | --- | --- |
| O=C(O[C@H](Cc1ccc(O)c(O)c1)C(=O)O)c1cc(-c2ccc(O)c(O)c2)c2cc(O)c(O)cc2c1 | > 10000 nM | > 10000 nM | > 10000 nM | – | – | – |
| COc1cc([C@H]2c3cc(O)c(OC)cc3C=C3C(=O)OC[C@H]4O[C@@](CO)(O[C@H]5O[C@H](COC(=O)/C=C/c6ccc(O[C@@H]7O[C@@H](C)[C@H](O)[C@@H](O)[C@H]7O)cc6)[C@@H](O)[C@H](O)[C@H]5O)[C@@H](OC(=O)[C@@H]32)[C@@H]4O)ccc1O | > 10000 nM | – | > 10000 nM | Non-Toxic | – | – |
| O=C(OC(Cc1ccc(O)c(O)c1)C(=O)O)C1=Cc2cc(O)c(O)cc2[C@H](c2ccc(O)c(O)c2)[C@H]1C(=O)O[C@@H](Cc1ccc(O)c(O)c1)C(=O)O (some centres undefined) | > 10000 nM | > 10000 nM | > 10000 nM | – | – | – |
| COc1cccc2c1C(=O)c1c(O)c3c(c(O)c1C2=O)C[C@@](O)(C(=O)CO)C[C@@H]3O[C@H]1C[C@H](N)[C@H](O)[C@H](C)O1 [DOXORUBICIN] | 10 nM | 20 nM | 40 nM | – | 1960 nM | – |
| O=C(/C=C/c1ccc(O)c(O)c1)O[C@H](Cc1ccc(O)c(O)c1)C(=O)O [ROSMARINIC ACID] | > 10000 nM | > 10000 nM | > 10000 nM | – | – | – |
| CC(=O)O[C@@]12CO[C@@H]1C[C@H](O)[C@@]1(C)C(=O)[C@H](O)C3=C(C)[C@@H](OC(=O)[C@H](O)[C@@H](NC(=O)OC(C)(C)C)c4ccccc4)C[C@@](O)([C@@H](OC(=O)c4ccccc4)[C@H]21)C3(C)C [DOCETAXEL ANHYDROUS] | 0.6 nM | 210 nM | – | – | – | 1.8 nM |
